Experimental data: US12521425B2, “Method of liver cancer treatment with safranal-based formulations” (priority 2019, dated 2026)

Columns and labels:
[1] = test system: HepG2 cells; assay: Cell morphology, crystal violet; assay type: cell-based; conditions: HepG2, increasing doses, 24 hours
Procedure: Cell morphology. HepG2 were seeded at a density of 0.25×10^6 cells/well in 6-well plate. After allowing the cell to attach, HepG2 cells were treated without or with different concentrations of safranal (30, 50, 100, 500, 700 μM) for 24 hrs. After which, cells were fixed and stained with crystal violet. The morphology of the cells was assessed after being fixed and stained with 0.5% crystal violet using IX53 microscope (Olympus).

[2] = test system: HepG2 cells; assay: Cell cycle analysis by flow cytometry; assay type: cell-based; conditions: HepG2, 500 μM; for fraction of subG1 cells: DMSO control 0.9%
Procedure: Cell cycle analysis. HepG2 cells were seeded at density of 3×10^6 cells per flask in complete growth medium and were allowed to attach overnight. After which, cells were treated with 500 μM of safranal for different time intervals (6-48 hours). At the indicated time intervals, cells were collected by incubation with trypsin and washed twice with PBS. Collected cells were fixed in 70% ethanol, treated with RNase and stained with propidium iodide. Cell cycle distribution was analyzed by flow cytometry in a FACS scan (Becton Dickenson, Germany).

[3] = test system: HepG2 cells; assay: Caspase-3 and 7 activities (Caspase-Glo 3/7); assay type: cell-based; conditions: HepG2, 500 and 700 μM, 24 hours
Procedure: Caspase-3 and 7 activities. HepG2 were seeded at a density of 5000 cells/well in a 96-well plate, and were allowed to attach. After which, cells were treated with 500 and 700 μM of safranal for 24 hours. Caspase-3 and 7 activities were detected using Caspase-Glo® 3/7 Assay kit according to manufacturer instructions (Promega). Luminescent signal was detected using GloMax Discover System (Promega).

[4] = test system: DEN-induced hepatic neoplasia; assay: Serum ALT and AST in DEN-induced HCC model; assay type: in vivo, male Wistar rats; conditions: HCC rats, oral gavage 5 days a week, weeks 17-19, safranal 200 mg/kg, sorafenib 10 mg/kg, mean±SEM, n=6
Procedure: (§1) A modified version of the protocol described by DePeralta et al. (2016) and Schiffer et al. (2005) was used here to establish the hepatocarcinogenesis model.
(§2) On the first 15 weeks, the control PBS group was treated with 1×PBS, whereas the experimental groups were given an intraperitoneal injection (IP) of 50 mg/kg of diethylnitrosoamine (DEN, Sigma Aldrich), a widely used chemical for inducing cancer, once a week. DEN was diluted with 1×PBS. Following a one-week break (week 16), the next three weeks (weeks 17 to 19) of treatment commenced. All drugs were administrated by oral gavage. All doses were chosen according to literature (Alsaied et al., 2014; Karafakioglu et al., 2017). For the HCC+sorafenib group, the drug (Carbosynth Limited) was administered at a dose of 10 mg/kg, five days a week. For the HCC+safranal group, the drug (Sigma Aldrich) was administered at a dose of 200 mg/kg, five days a week. For the HCC+safranal+sorafenib group, the drugs were administered at a dose of 200 mg/kg safranal+10 mg/kg sorafenib, five days a week. Both safranal and sorafenib were diluted with 1×PBS and drops of Tween 80. […] After 24-hours from last treatment, the rats were euthanized by mild diethyl ether and dissected in equal conditions. Blood and whole liver were collected.
Rats were euthanized then blood was collected by decapitation and processed for later investigation. The blood was collected in collection tubes (BD Vacutainer) and serum was separated by centrifugation at 1200× g for 10 minutes. Serum was collected and flash frozen immediately then stored at −80° C. for further analysis.
Alanine Transaminase (ALT), and Aspartate Aminotransferase (AST) assays were performed using commercial kits (Abcam), according to the protocol provided. ALT and AST activities were measured spectrophotometrically using Epoch by BioTek.

[5] = test system: DEN-induced hepatic neoplasia; assay: Western blotting of liver in DEN-induced HCC model; assay type: in vivo, male Wistar rats; conditions: liver of HCC rats
Procedure: as §1, §2
One hundredth gm (10 mg) liver was homogenized using 200 μl RIPA buffer (Sigma Aldrich) mixed with 2 μl protease inhibitor and 2 μl phosphatase inhibitor (Sigma Aldrich), and centrifuged at 4° C., 15,000 rpm for 15 minutes. Whole cell lysate was taken and stored at −80° C. Protein concentration was measured by Pierce BCA Protein Assay Kit with Promega GloMax Discover. A total of 35 μg of protein was loaded on a sodium dodecyl sulfate-polyacrylamide gel electrophoresis gel. The gel was then transferred to polyvinylidene difluoride membrane. The membrane was then blocked with 5% BSA in TBST for one hour at room temperature. Membranes were incubated with anti-Proliferating Cell Nuclear Antigen (PCNA), anti-PolyADP-ribose Polymerase (PARP), anti-caspase-3 (Cell Signaling Technology Inc.), anti-caspase-9 (Novus Biologicals), anti-Bax, anti-Bcl-2 (Santa Cruz), anti-Cdk1, anti-Cyclin B1, anti-Cdc25B (Cell Signaling Technology Inc.) over night at 4° C., then with HRP conjugated secondary, anti-mouse or anti-rabbit, antibody (Cell Signaling Technology Inc.) for one hour at room temperature. All primary and secondary antibodies were diluted in 5% BSA in TBST. Blots were incubated in WesternSure PREMIUM Chemiluminescent Substrate for antibodies' detection. Signal was visualized using Bio-Rad ChemiDoc XRS+System. Band density and quantification was done using ImageJ (Amin et al., 2011). Total protein was used as a loading control and stained using SYPRO Ruby protein gel stain according to the protocol provided (Thermo Fisher Scientific) (Aldridge et al., 2008; Hu et al., 2016).

CC1=C(C=O)C(C)(C)CC=C1 [safranal]
morphological changes [1]: morphological alterations including more rounded cell shapes, cell shrinkage, and increased detachment | cell cycle distribution ([2]; 6 and 12 hours post treatment): G2/M phase arrest | cell cycle distribution ([2]; 24 hours): S-phase arrest | fraction of subG1 cells ([2]; after 24 hours): 6.3% | fraction of subG1 cells ([2]; after 48 hours): 26.2% | activity of executioner caspases-3 and -7 [3]: increased | ALT [4]: 10.93 ± 0.29^b**^,c* mU/ml | AST [4]: 7.80 ± 2.02 mU/ml | Bax/Bcl-2 ratio [5]: favored the apoptotic effect | TDP1 levels [5]: lower levels of TDP1 | expression of pro-caspases-9 & 3 and whole PARP ([5]; compared to HCC group): significantly decreased | expression of anti-apoptotic protein Bcl-2 ([5]; compared to HCC groups): decreased | expression of pro-apoptotic protein Bax ([5]; compared to HCC groups): increased | Cdk1, cyclin B1, Cdc25B levels ([5]; comparing to HCC animals): significantly decreased their levels | PCNA (proliferation-related protein) ([5]; n=4): significantly downregulated PCNA
